# Results: PubChem BioAssay (NCI)
#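 Cells were grown in 96-well plates and exposed to each compound for 48 hours at five concentrations; endpoints were interpolated linearly between bracketing concentrations, or set to the highest concentration if not reached. Abbreviation: GI50, concentration required for 50% inhibition of growth. Definition used: TGI = concentration required for complete inhibition of growth.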
# Assays:
# Experiment in all cases: NCI anticancer screen, dose series, 48 h
# [1] = system: NCI-H23 lung
# [2] = system: COLO 205 colon
# [3] = system: SR leukemia
# [4] = system: SK-MEL-5 melanoma
# [5] = system: NCI-H460 lung
# [6] = system: A549 NSCLC
# [7] = system: OVCAR-3 ovarian
# [8] = system: MDA-MB-231 breast
# [9] = system: RPMI-8226 leukemia
# [10] = system: SK-MEL-2 melanoma
# [11] = system: DU-145 prostate
# [12] = system: ACHN renal
# [13] = system: SF-268 CNS
# [14] = system: SK-OV-3 ovarian
# [15] = system: BT-549 breast
# [16] = system: NCI-H226 lung
# [17] = system: OVCAR-8 ovarian
# [18] = system: LOX IMVI melanoma
# [19] = system: SF-539 CNS
# [20] = system: EKVX NSCLC
# [21] = system: TK-10 renal
# [22] = system: A498 renal
# [23] = system: SN12C renal
# [24] = system: OVCAR-4 ovarian
# [25] = system: K-562 leukemia
# [26] = system: UACC-62 melanoma
# [27] = system: U251 CNS
# [28] = system: NCI/ADR-RES ovarian
compound,measurement,setting,value
O=[N+]([O-])c1cc(S(=O)(=O)Oc2ccccc2)ccc1Cl,GI50,[1],16.5 µM
same,TGI,[1],37.9 µM
same,GI50,[2],3.85 µM
same,TGI,[2],14.4 µM
same,GI50,[3],0.421 µM
same,TGI,[3],5.8 µM
same,GI50,[4],4.06 µM
same,TGI,[4],15 µM
same,GI50,[5],2.04 µM
same,TGI,[5],4.06 µM
same,GI50,[6],3.43 µM
same,TGI,[6],14.5 µM
same,GI50,[7],1.49 µM
same,TGI,[7],2.85 µM
same,GI50,[8],3.89 µM
same,TGI,[8],16.2 µM
same,GI50,[9],3.33 µM
same,TGI,[9],8.29 µM
same,GI50,[10],10.7 µM
same,TGI,[10],26.1 µM
same,GI50,[11],1.83 µM
same,TGI,[11],3.24 µM
same,GI50,[12],3.22 µM
same,TGI,[12],9.05 µM
same,GI50,[13],1.83 µM
same,TGI,[13],3.4 µM
same,GI50,[14],6.21 µM
same,TGI,[14],18.8 µM
same,GI50,[15],5.43 µM
same,TGI,[15],17 µM
same,GI50,[16],7.71 µM
same,TGI,[16],21.1 µM
same,GI50,[17],5.15 µM
same,TGI,[17],19.7 µM
same,GI50,[18],1.78 µM
same,TGI,[18],3.69 µM
same,GI50,[19],3.52 µM
same,TGI,[19],10.4 µM
same,GI50,[20],1.99 µM
same,TGI,[20],4.07 µM
same,GI50,[21],12.5 µM
same,TGI,[21],25.1 µM
same,GI50,[22],1.68 µM
same,TGI,[22],4.05 µM
same,GI50,[23],3.56 µM
same,TGI,[23],13.6 µM
same,GI50,[24],1.75 µM
same,TGI,[24],3.2 µM
same,GI50,[25],0.432 µM
same,TGI,[25],> 100 µM
same,GI50,[26],3.55 µM
same,TGI,[26],13.5 µM
same,GI50,[27],1.27 µM
same,TGI,[27],2.6 µM
same,GI50,[28],8.27 µM
